Source: patent publication US10653705B2, “Applications for estrone in preparing anti-ovarian cancer and/or breast cancer products” (SHANGHAI JIAO TONG UNIVERSITY, priority 2015, dated 2020)

How the values were obtained:
Assay type in all cases: cell-based
[1] = tested on: HCC1395 breast cancer cells; experiment: CellTiter-Glo luminescent cell viability assay, HCC1395 breast cancer cells; details: Homo sapiens, 72 hours
Method: In example 1, CELLTITER-GLO was used to test estrone against ovarian cancer and/or breast cancer m) A cell counter was used to count the number of suspended cells and adjust the cell suspension to an appropriate density in the plate to carry out cell plating experiments. 2. The drug analyte estrone was prepared and administered (200× final concentration): a) DMSO was used to dilute the analyte estrone to 20 mM for use. b) 79 μL of the 20 mM analyte prepared in step a) was added to the first well in the first row of the dilution plate, and then 54 μL of DMSO solution was added to the second through ninth wells of the first row. […] The final concentrations (μM) of the analyte drug in wells 2-10 in FIG. 1 are, in order: 100, 31.64557, 10.01442, 3.16912, 1.002886, 0.317369, 0.100433, 0.031783, 0.010058; B. CELLTITER-GLO Luminescent Cell Viability Assay System c) 100 μl of CellTiter-Glo reagent (prepared as described in 1 above) was added to all drug screening plates and mixed evenly. d) It was thoroughly oscillated in a 96-well microplate oscillator for 2 minutes to allow the cells to undergo full lysis. e) It was stored away from light at room temperature for 15 minutes before carrying out luminescent signal detection to ensure signal stability. f) An EnSpire multi-function plate reader was used at 570 nm to read the luminescent signals. g) Data was processed and analyzed. […]

[2] = tested on: NCI-H460 large-cell lung cancer cells; experiment: CellTiter-Glo luminescent cell viability assay, NCI-H460 large-cell lung cancer cells; details: Homo sapiens, 72 hours
[3] = tested on: NCI-H1437 human lung cancer cells; experiment: CellTiter-Glo luminescent cell viability assay, NCI-H1437 human lung cancer cells; details: 72 hours
[4] = tested on: SKOV-3 ovarian cancer cells; experiment: CellTiter-Glo luminescent cell viability assay, SKOV-3 ovarian cancer cells
Text: In example 1, CELLTITER-GLO was used to test estrone against ovarian cancer and/or breast cancer m) A cell counter was used to count the number of suspended cells and adjust the cell suspension to an appropriate density in the plate to carry out cell plating experiments. SKOV-3 cells were handled as described above, and a SKOV-3 96-well cell culture plate was obtained. The complete medium for SKOV-3 cells was McCOY'S 5A (a live product), Cat #16600082, with a cells/well density of 12000. 2. The drug analyte estrone was prepared and administered (200× final concentration): a) DMSO was used to dilute the analyte estrone to 20 mM for use. b) 79 μL of the 20 mM analyte prepared in step a) was added to the first well in the first row of the dilution plate, and then 54 μL of DMSO solution was added to the second through ninth wells of the first row. […] The final concentrations (μM) of the analyte drug in wells 2-10 in FIG. 1 are, in order: 100, 31.64557, 10.01442, 3.16912, 1.002886, 0.317369, 0.100433, 0.031783, 0.010058; B. CELLTITER-GLO Luminescent Cell Viability Assay System a) Before testing, the SKOV-3 96-well drug screening plate described in 3 above was stabilized to room temperature for 20-30 minutes. c) 100 μl of CellTiter-Glo reagent (prepared as described in 1 above) was added to all drug screening plates and mixed evenly. d) It was thoroughly oscillated in a 96-well microplate oscillator for 2 minutes to allow the cells to undergo full lysis. e) It was stored away from light at room temperature for 15 minutes before carrying out luminescent signal detection to ensure signal stability. f) An EnSpire multi-function plate reader was used at 570 nm to read the luminescent signals. g) Data was processed and analyzed.

In the case of C[C@]12CC[C@@H]3c4ccc(O)cc4CC[C@H]3[C@@H]1CCC2=O [Estrone], the IC50 [1] is reported as 68 µM, the EC50 ([1]; FIG. 3) is reported as 74000 µM and the IC50 [2] is reported as at least 100 µM. For the same compound, the IC50 [3] was at least 100 µM, the IC50 ([4]; Homo sapiens, SK-OV-3, SKOV-3 cells, 72 hours, CellTiter-Glo) was 21.5 µM and the EC50 ([4]; Homo sapiens, SK-OV-3, SKOV-3 cells, 72 hours, CellTiter-Glo, FIG. 2) was 16.4 µM. The “effect on the proliferation of ovarian cancer cells” value ([4]; compared with the lung cancer cell lines of Table 1) was “specific inhibitory effect”.
